How the values were obtained:
[1] = molecular target: T1, hM3 muscarinic receptor (Homo sapiens, UniProt P20309); test: Radioligand binding assay for muscarinic receptors ([3H]-NMS displacement); conditions: M3 muscarinic receptor subtype, CHO cell membranes, [3H]-NMS 1 nM
T1 construct: expressed in transfected cells; host or cells: CHO
Protocol: (§1) CHO cell lines stably expressing cloned human hM1, hM2, hM3 and hM4 muscarinic receptor subtypes, respectively, were grown to near confluency in Hams F-12 media supplemented with 10% FBS and 250 μg/mL Geneticin. The cells were grown in a 5% CO2, 37° C. incubator and lifted with 2 mM EDTA in dPBS. Cells were collected by 5 minute centrifugation at 650×g, and cell pellets were either stored frozen at −80° C. or membranes were prepared immediately for use. For membrane preparation, cell pellets were resuspended in lysis buffer and homogenized with a Polytron PT-2100 tissue disrupter (Kinematica AG; 20 seconds×2 bursts). Crude membranes were centrifuged at 40,000×g for 15 minutes at 4° C. The membrane pellet was then resuspended with re-suspension buffer and homogenized again with the Polytron tissue disrupter. The protein concentration of the membrane suspension was determined by the method described in Lowry et al., 1951, Journal of Biochemistry, 193, 265. All membranes were stored frozen in aliquots at −80° C. or used immediately. Aliquots of prepared hM5 receptor membranes were purchased directly from PerkinElmer, Inc. (Wellesley, Mass.) and stored at −80° C. until use.
(§2) Radioligand binding assays for cloned muscarinic receptors were performed in 96-well microtiter plates in a total assay volume of 100 μL. CHO cell membranes stably expressing either the hM1, hM2, hM3, hM4 or hM5 muscarinic subtype were diluted in assay buffer to the following specific target protein concentrations (μg/well): 10 μg for hM1, 10-15 μg for hM2, 10-20 μg for hM3, 10-20 μg for hM4, and 10-12 μg for hM5 to get similar signals (cpm). The membranes were briefly homogenized using a Polytron tissue disrupter (10 seconds) prior to assay plate addition. Saturation binding studies for determining KD values of the radioligand were performed using L-[N-methyl-^3H]scopolamine methyl chloride ([^3H]-NMS) (TRK666, 84.0 Ci/mmol, Amersham Pharmacia Biotech, Buckinghamshire, England) at concentrations ranging from 0.001 nM to 20 nM. Displacement assays for determination of Ki values of test compounds were performed with [^3H]-NMS at 1 nM and eleven different test compound concentrations. The test compounds were initially dissolved to a concentration of 400 μM in dilution buffer and then serially diluted 5× with dilution buffer to final concentrations ranging from 10 pM to 100 μM. The addition order and volumes to the assay plates were as follows: 25 μL radioligand, 25 μL diluted test compound, and 50 μL membranes. Assay plates were incubated for 60 minutes at 37° C. Binding reactions were terminated by rapid filtration over GF/B glass fiber filter plates (PerkinElmer, Inc.) pre-treated in 1% BSA. Filter plates were rinsed three times with wash buffer (10 mM HEPES) to remove unbound radioactivity. The plates were then air-dried and 50 μL Microscint-20 liquid scintillation fluid (PerkinElmer, Inc.) were added to each well. The plates were then counted in a PerkinElmer Topcount liquid scintillation counter (PerkinElmer, Inc.). Binding data were analyzed by nonlinear regression analysis with the GraphPad Prism Software package (GraphPad Software, Inc., San Diego, Calif.) using the one-site competition model. Ki values for test compounds were calculated from observed IC50 values and the KD value of the radioligand using the Cheng-Prusoff equation (Cheng Y; Prusoff W H. (1973) Biochemical Pharmacology, 22(23):3099-108). […]

[2] = molecular target: T2, hM5 muscarinic receptor (Homo sapiens, UniProt P08912); test: as above; conditions: M5 muscarinic receptor subtype, CHO cell membranes, [3H]-NMS 1 nM
T2 construct: purchased PerkinElmer, Inc. (Wellesley, Mass.); host or cells: CHO cell membranes
T2 sequence (P08912 1-532): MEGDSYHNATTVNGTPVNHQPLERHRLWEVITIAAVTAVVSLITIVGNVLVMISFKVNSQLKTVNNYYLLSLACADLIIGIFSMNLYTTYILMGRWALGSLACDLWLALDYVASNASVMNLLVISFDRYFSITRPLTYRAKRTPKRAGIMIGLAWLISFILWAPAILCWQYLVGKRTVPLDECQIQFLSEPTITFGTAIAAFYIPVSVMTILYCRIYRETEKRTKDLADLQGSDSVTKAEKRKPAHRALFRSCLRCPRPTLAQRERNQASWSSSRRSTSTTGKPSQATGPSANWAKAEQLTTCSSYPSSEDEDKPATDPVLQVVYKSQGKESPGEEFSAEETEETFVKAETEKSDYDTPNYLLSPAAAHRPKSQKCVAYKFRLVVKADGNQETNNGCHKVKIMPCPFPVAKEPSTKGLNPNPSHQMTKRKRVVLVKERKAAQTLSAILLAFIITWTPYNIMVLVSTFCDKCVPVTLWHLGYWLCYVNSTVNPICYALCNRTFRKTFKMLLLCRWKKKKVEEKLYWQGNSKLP
Protocol: as §1, §2

[3] = molecular target: T3, human β2 adrenergic receptor (endogenous, BEAS-2B cells) (Homo sapiens, UniProt P07550); test: Whole-cell cAMP Flashplate assay with lung epithelial cell line (BEAS-2B); format: cell-based
T3 construct: using a cell line expressing endogenous levels of the β2 adrenergic receptor; host or cells: BEAS-2B human lung epithelial cell line
T3 sequence (P07550 whole entry): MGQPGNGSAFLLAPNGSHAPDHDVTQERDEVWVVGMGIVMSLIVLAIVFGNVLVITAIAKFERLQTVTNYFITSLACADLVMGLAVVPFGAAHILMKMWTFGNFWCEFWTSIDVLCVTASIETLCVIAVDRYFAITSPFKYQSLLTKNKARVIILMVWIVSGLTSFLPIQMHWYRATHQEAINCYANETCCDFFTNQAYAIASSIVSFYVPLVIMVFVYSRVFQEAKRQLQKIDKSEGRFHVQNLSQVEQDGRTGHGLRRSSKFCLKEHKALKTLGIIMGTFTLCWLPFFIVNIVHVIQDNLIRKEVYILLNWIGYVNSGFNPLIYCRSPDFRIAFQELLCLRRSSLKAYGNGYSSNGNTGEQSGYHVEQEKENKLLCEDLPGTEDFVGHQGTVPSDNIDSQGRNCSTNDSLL
Protocol: In this assay, the agonist potency and intrinsic activity of a test compound were determined using a cell line expressing endogenous levels of the β2 adrenergic receptor.
On the day of the assay, cells were rinsed with PBS, lifted by scraping with 5 mM EDTA in PBS, and counted. Cells were pelleted by centrifugation at 1,000 rpm and re-suspended in stimulation buffer pre-warmed to 37° C. at a final concentration of 600,000 cells/mL. Cells were used at a final concentration of 100,000 to 120,000 cells/well in this assay. […] Test compounds were tested in the assay at 11 different concentrations, ranging from 10 μM to 10 pM. Reactions were incubated for 10 min at 37° C. and stopped by addition of 100 μL of ice-cold detection buffer. Plates were sealed, incubated over night at 4° C. and counted the next morning in a Topcount scintillation counter (Packard BioScience Co., Meriden, Conn.). […] Data were analyzed by nonlinear regression analysis with the GraphPad Prism Software package (GraphPad Software, Inc., San Diego, Calif.) using the 4-parameter model for sigmoidal dose-response.

T1 sequence (P20309 whole entry): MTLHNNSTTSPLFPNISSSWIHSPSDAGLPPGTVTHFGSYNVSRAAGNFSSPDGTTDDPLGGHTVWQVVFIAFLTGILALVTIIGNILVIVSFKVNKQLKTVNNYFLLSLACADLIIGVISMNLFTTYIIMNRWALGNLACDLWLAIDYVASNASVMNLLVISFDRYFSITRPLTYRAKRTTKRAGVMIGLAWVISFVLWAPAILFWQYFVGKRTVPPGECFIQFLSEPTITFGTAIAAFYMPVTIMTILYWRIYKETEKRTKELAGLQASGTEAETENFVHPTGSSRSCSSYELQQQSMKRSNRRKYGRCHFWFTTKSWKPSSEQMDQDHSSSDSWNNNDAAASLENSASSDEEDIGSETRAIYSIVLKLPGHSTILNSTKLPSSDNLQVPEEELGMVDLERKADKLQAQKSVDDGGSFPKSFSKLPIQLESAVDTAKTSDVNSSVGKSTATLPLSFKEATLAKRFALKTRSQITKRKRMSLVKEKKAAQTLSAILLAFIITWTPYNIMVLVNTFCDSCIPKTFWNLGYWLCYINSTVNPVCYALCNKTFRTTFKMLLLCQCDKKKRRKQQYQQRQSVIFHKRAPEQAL

In the case of `Cc1cc(NC(=O)CCN2CCC(OC(=O)Nc3ccccc3-c3ccccc3)CC2)c(C)cc1CNC[C@H](O)c1ccc(O)c(NC=O)c1` [compound of formula I, biphenyl-2-ylcarbamic acid 1-[2-(4-{[(R)-2-(3-formylamino-4-hydroxyphenyl)-2-hydroxyethylamino]methyl}-2,5-dimethylphenylcarbamoyl)ethyl]-piperidin-4-yl ester], the Ki [1] is reported as < 0.01 µM, the Ki [2] is reported as < 0.01 µM and the EC50 ([3]; cAMP) is reported as < 0.01 µM. For the same molecule, the intrinsic activity ([3]; compared with full β2 agonist isoproterenol (1.0)) was “greater than 0.3”.
